# Results published in patent US12559474B2, “Triazine derivatives having virus replication inhibitory activity and pharmaceutical composition comprising the same” (priority 2021, dated 2026).
# Read-outs that look alike come from different tables or passages of the source.
# Legend:
# SARS-CoV-2 = assay: microbe, parasite or virus in culture; type: cell-based; conditions: Severe acute respiratory syndrome coronavirus 2, VeroE6/TMPRSS2, 72 h, 50% SARS-CoV-2 infected cell death inhibitory concentration, VeroE6/TMPRSS2 cells, 3 days culture
# SARS-CoV-2 3CL protease = SARS-CoV-2 3CL protease (Severe acute respiratory syndrome coronavirus 2, UniProt P0DTD1); assay: biochemical; conditions: 50% SARS-CoV-2 3CL protease inhibitory concentration, read-out: IC50
Structure (SMILES),EC50 (SARS-CoV-2; CellTiter-Glo 2.0) [µM],IC50 (SARS-CoV-2 3CL protease; RapidFire MS) [µM],EC50 (SARS-CoV-2; class symbols) [µM],IC50 (SARS-CoV-2 3CL protease; given as class symbols) [µM]
O=c1[nH]cccc1Cn1c(=O)nc(N2CC3(CCC3)C2)n(Cc2cc(F)c(F)c(F)c2)c1=O [II-0226],2.77,0.13,,
Cc1cncc(-n2c(=O)nc(NC3CCC3)n(Cc3cc(F)c(F)c(F)c3)c2=O)c1 [II-0227],,0.63,< 1,
O=c1[nH]cccc1Cn1c(=O)nc(NC2CCCCC2)n(Cc2cc(F)c(F)c(F)c2)c1=O [II-0228],5,0.24,,
CSc1nc(=O)n(-c2cncc3ccccc23)c(=O)n1Cc1cc(F)c(F)c(F)c1 [II-0232],,3.7,< 1,
CCn1cc2cc(Nc3nc(=O)n(-c4cncc(C)c4)c(=O)n3Cc3cc(C#N)c(F)cc3C)c(Cl)cc2n1 [II-0233],0.065,0.0015,,
CNc1nc2cc(F)c(Nc3nc(=O)n(-c4cncc(C)c4)c(=O)n3Cc3cc(C#N)c(F)cc3C)cc2s1 [II-0234],,,< 1,< 0.1
CNc1nc2cc(Cl)c(Nc3nc(=O)n(Cc4ncn(C)n4)c(=O)n3Cc3cc(F)c(F)c(Cl)c3)cc2s1 [II-0235],,,1 to 10,< 0.1
CNc1nc2cc(Cl)c(Nc3nc(=O)n(-c4cncc(C)c4)c(=O)n3Cc3cc(F)c(F)cc3F)cc2s1 [II-0236],,,< 1,< 0.1
O=c1nc(Nc2cc3sc(NC4CC4)nc3cc2Cl)n(Cc2cc(Cl)c(F)cc2F)c(=O)n1Cc1ncccn1 [II-0237],,,< 1,< 0.1
O=c1nc(Nc2cc3cn(CCO)nc3cc2Cl)n(Cc2cc(Cl)c(F)cc2F)c(=O)n1Cc1ncccn1 [II-0238],,,1 to 10,< 0.1
CNc1nc2cc(Cl)c(Nc3nc(=O)n(Cc4ncccn4)c(=O)n3Cc3cc(Cl)c(F)cc3F)cc2s1 [II-0239],,,1 to 10,< 0.1
CC(C)(O)Cn1cc2cc(Nc3nc(=O)n(Cc4ncccn4)c(=O)n3Cc3cc(Cl)c(F)cc3F)c(Cl)cc2n1 [II-0240],,,1 to 10,< 0.1
CC(C)(O)Cn1cc2cc(Nc3nc(=O)n(Cc4ncccn4)c(=O)n3Cc3cc(F)c(F)c(Cl)c3)c(Cl)cc2n1 [II-0241],1.39,0.024,,
Cn1cc2cc(Nc3nc(=O)n(Cc4ncccn4)c(=O)n3Cc3cc(Cl)c(F)cc3F)c(Cl)cc2n1 [II-0242],,,< 1,< 0.1
Cn1cnc(Cn2c(=O)nc(Nc3cc4sc(NCC(F)F)nc4cc3Cl)n(Cc3cc(F)c(F)c(Cl)c3)c2=O)n1 [II-0243],,,1 to 10,< 0.1
Cc1cncc(-n2c(=O)nc(Nc3cc4sc(NCC(F)(F)F)nc4cc3F)n(Cc3ccc(F)c(C#N)c3)c2=O)c1 [II-0244],,,1 to 10,< 0.1
Cn1cc2cc(Nc3nc(=O)n(Cc4ncccn4)c(=O)n3Cc3cc(F)c(F)cc3F)c(Cl)cc2n1 [II-0245],,,< 1,< 0.1
Cn1cc2cc(Nc3nc(=O)n(Cc4nccc(N)n4)c(=O)n3Cc3cc(F)c(F)cc3F)c(Cl)cc2n1 [II-0246],,,1 to 10,< 0.1
Cn1ccc(-c2ccnc(Cn3c(=O)nc(Nc4cc5cn(C)nc5cc4Cl)n(Cc4cc(F)c(F)cc4F)c3=O)c2)n1 [II-0247],,,< 1,< 0.1
O=c1nc(Nc2cc3cn(CCO)nc3cc2Cl)n(Cc2cc(F)c(F)cc2F)c(=O)n1Cc1ccccn1 [II-0249],,,1 to 10,< 0.1
Cn1ccc(-c2ccnc(Cn3c(=O)nc(Nc4cc5cn(C)nc5cc4Cl)n(Cc4cc(F)c(F)cc4F)c3=O)n2)n1 [II-0250],,,1 to 10,< 0.1
Cn1cc2cc(Nc3nc(=O)n(Cc4ccccn4)c(=O)n3Cc3cc(F)c(F)cc3F)c(Cl)cc2n1 [II-0251],,,< 1,< 0.1
COc1ccnc(Cn2c(=O)nc(Nc3cc4cn(C)nc4cc3Cl)n(Cc3cc(F)c(F)cc3F)c2=O)c1 [II-0252],,,1 to 10,< 0.1
CNc1ccnc(Cn2c(=O)nc(Nc3cc4cn(C)nc4cc3Cl)n(Cc3cc(F)c(F)cc3F)c2=O)n1 [II-0253],,,1 to 10,< 0.1
Cn1cc(-c2ccnc(Cn3c(=O)nc(Nc4cc5cn(C)nc5cc4Cl)n(Cc4cc(F)c(F)cc4F)c3=O)c2)cn1 [II-0254],,,1 to 10,< 0.1

Structure (SMILES),EC50 (SARS-CoV-2; CellTiter-Glo 2.0) [µM],IC50 (SARS-CoV-2 3CL protease; RapidFire MS) [µM],EC50 (SARS-CoV-2; class symbols) [µM],IC50 (SARS-CoV-2 3CL protease; given as class symbols) [µM]
Cn1cc2cc(Nc3nc(=O)n(Cc4cc(Cl)ccn4)c(=O)n3Cc3cc(F)c(F)cc3F)c(Cl)cc2n1 [II-0255],1.52,0.1,,
COc1ccc(Nc2nc(=O)n(Cc3ncn(C(F)F)n3)c(=O)n2Cc2cc(F)c(F)c(F)c2)cc1 [II-0257],9.14,0.97,,
COc1ccc(Nc2nc(=O)n(Cc3cscn3)c(=O)n2Cc2cc(F)c(F)c(F)c2)cc1 [II-0258],7.87,0.95,,
COc1ccc(Nc2nc(=O)n(CC3CCN(C)C3)c(=O)n2Cc2cc(F)c(F)c(F)c2)cc1 (stereo not shown) [II-0259],36.3,3.4,,
CCc1nc2cc(Cl)c(Nc3nc(=O)n(Cc4ncn(C)n4)c(=O)n3Cc3cc(Cl)c(F)cc3F)cc2s1 [II-0260],,,< 1,< 0.1
Cn1cc2cc(Nc3nc(=O)n(-c4cncc(C5CC5)c4)c(=O)n3Cc3ccc(F)c(C#N)c3)c(Cl)cc2n1 [II-0261],,,< 1,< 0.1
Cn1cnc(Cn2c(=O)nc(Nc3cc4sc(NCC(F)F)nc4cc3Cl)n(Cc3cc(Cl)c(F)cc3F)c2=O)n1 [II-0262],,,1 to 10,< 0.1
CNc1nc2cc(F)c(Nc3nc(=O)n(-c4cncc(Cl)c4)c(=O)n3Cc3ccc(F)c(C#N)c3)cc2s1 [II-0263],,,1 to 10,< 0.1
Cc1cncc(-n2c(=O)nc(Nc3ccc4nn(C)c(C)c4c3)n(Cc3ccc(F)c(C#N)c3)c2=O)c1 [II-0264],,,1 to 10,< 0.1
Cc1cncc(-n2c(=O)nc(Nc3cc4cn(C)nc4cc3Cl)n(Cc3ccc(F)c(C#N)c3)c2=O)c1F [II-0265],,,< 1,< 0.1
Cc1c2cc(Nc3nc(=O)n(-c4cncc(Cl)c4)c(=O)n3Cc3ccc(F)c(C#N)c3)ccc2nn1C [II-0267],,,1 to 10,< 0.1
Cn1cnc(Cn2c(=O)nc(Nc3cc4cn(CC5CC5)nc4cc3Cl)n(Cc3cc(Cl)c(F)cn3)c2=O)n1 [II-0269],,,1 to 10,< 0.1
Cc1cncc(-n2c(=O)nc(Nc3cc4cn(C)nc4cc3Cl)n(Cc3cc(F)c(F)c(F)c3)c2=O)c1F [II-0270],,,1 to 10,< 0.1
COCc1cncc(-n2c(=O)nc(Nc3ccc4c(c3)CCO4)n(Cc3ccc(F)c(C#N)c3)c2=O)c1 [II-0271],,,1 to 10,< 0.1
COc1ccc(Nc2nc(=O)n(-c3cncc(C4CC4)c3)c(=O)n2Cc2cc(F)c(F)c(F)c2)cc1 [II-0272],1.59,0.18,,
Cn1cc2cc(Nc3nc(=O)n(-c4cncc(C(F)(F)F)c4)c(=O)n3Cc3cc(F)c(F)c(F)c3)c(Cl)cc2n1 [II-0273],6.6,0.36,,
COC(=O)c1cncc(-n2c(=O)nc(Nc3cc4cn(C)nc4cc3Cl)n(Cc3cc(F)c(F)c(F)c3)c2=O)c1 [II-0275],7.28,0.36,,
Cc1cncc(-n2c(=O)nc(Nc3ccc4nn(CC(F)F)cc4c3)n(Cc3cc(C#N)c(F)cc3C)c2=O)c1 [II-0278],0.17,0.0031,,
Cc1cncc(-n2c(=O)nc(Nc3cc4c(cc3Cl)nc3n4CCN3)n(Cc3cc(Cl)c(F)cc3F)c2=O)c1 [II-0279],,,1 to 10,< 0.1
Cc1cncc(-n2c(=O)nc(Nc3cc4cn(CC(=O)N(C)C)nc4cc3Cl)n(Cc3cc(F)c(F)c(F)c3)c2=O)c1 [II-0281],,,1 to 10,< 0.1
Cn1cc2cc(Nc3nc(=O)n(-c4cncc(Cl)c4)c(=O)n3Cc3cc(C#N)c(F)cc3Cl)ccc2n1 [II-0282],0.26,0.0088,,
CNc1nc2cc(F)c(Nc3nc(=O)n(-c4cncc(C)c4)c(=O)n3Cc3ccc(F)c(C#N)c3)cc2s1 [II-0283],,,< 1,< 0.1
Cn1cc2cc(Nc3nc(=O)n(-c4cncc(Cl)c4)c(=O)n3Cc3cc(F)c(F)c(C#N)c3)ccc2n1 [II-0284],0.184,0.0092,,
CC(C)n1cc2cc(Nc3nc(=O)n(Cc4ncn(C)n4)c(=O)n3Cc3cc(F)c(F)cc3F)c(Cl)cc2n1 [II-0285],,,< 1,< 0.1
Cn1cnc(Cn2c(=O)nc(Nc3cc4cn(C)nc4cc3Cl)n(Cc3ccc(F)c(C#N)c3)c2=O)n1 [II-0286],,,1 to 10,< 0.1
